# Experimental data reported in patent publication US10117866B2, “Promoting axon regeneration in the adult CNS through control of protein translation” (CHILDREN'S MEDICAL CENTER CORPORATION, priority 2008, dated 2018).
# Tested on: dorsal corticospinal tract (CST) axons
# Experiment: Spinal injury (dorsal corticospinal tract transection) in rats, intrathecal or intravenous PTEN inhibitor
# Format: in vivo, Sprague Dawley rats
# Details: intrathecal or intravenous administration, rat spinal injury model
# Description: Methodology for this animal study was adapted from Nash et al (J. Neurosci (2002) 22:7111-7120), Luo et al (Molecular Pain (2005) 1:29), and Obata et al (J. Neurosci. (2004) 24:10211-22).
# Adult Sprague Dawley rats ([…]) are trained and tested in a directed forepaw reaching (DFR) apparatus which measures grasping ability. The apparatus, which is described in detail by Nash et al., supra, is a box that consists of two compartments: a main compartment for housing the rats and a minor compartment for the food, separated by a PLEXIGLAS™ divider. The minor compartment is subdivided into slots of equal size, each holding a pellet of food. Between the slots and the PLEXIGLAS™ there is a gap. The apparatus is configured such that in order to retrieve a food pellet from a slot, a rat must extend a forelimb through a hole in the PLEXIGLAS™ divider, and grasp the pellet and lift it over the gap and out of the slot. If the rat merely rakes the food in the slot towards the hole in the PLEXIGLAS™, the food will drop from the slot into the gap and fall to the floor of the minor compartment. The floor of the minor compartment can be configured to allow a rat to retrieve food that drops or it can be lowered to prevent the rat from reaching dropped food. Prior to inducing spinal injury, the rats are food restricted, receiving ˜[…] body weight per day, before and throughout training and testing. Weight is monitored to ensure that rats are reduced to no less than 80% of their original body weight at any time. All rats are given shaping periods for 2-3 d in the box to allow them to learn the task while they become familiar with the testing situation. Animals are trained twice per day for 5 d and then tested twice per day for 5 d, and presurgical DFR data is collected. During the testing period, rats are given 5 min to complete the task and are allowed to make as many attempts as they want during this time period. Rats are required to return to at least 95% of their original weight to ensure that they are healthy before undergoing surgery.
# Rats are randomly assigned to control or experimental groups. Sham control rats undergo surgical procedure without lesioning, and with or without placement of a mini osmotic pump (Alzet type 2001; Durect, Cupertino, Calif.). Lesioned control rats receive no treatment, tail vein injection with vehicle only treatment, insertion of a mini osmotic pump only treatment, or insertion of a mini osmotic pump with vehicle only treatment. After anesthesia with isoflurane, the rats are placed on an operating board in such a way as to bend the cervical spinal cord for maximum exposure. A laminectomy is performed exposing the dorsum of the spinal cord between C2 and C4. […]
row,Molecule,axonal regeneration after spinal injury
1,"O.O.O=C([O-])c1ccccn1.OO.OO.[K+].[K+].[OH-].[V] [bpV(pic), dipotassium bisperoxo(picolinato)oxovanadate (V)]",can be promoted
2,"O.O.O.OO.OO.[K+].[OH-].[V].c1cnc2c(c1)ccc1cccnc12 [bpV(phen), potassium bisperoxo(1,10-phenanthroline)oxovanadate (V)]",can be promoted
3,dipotassium bisperoxo(5-hydroxypyridine-2-carboxyl)oxovanadate (V) [bpV(HOpic)],can be promoted
4,potassium bisperoxo(bipyridine)oxovanadate (V) [bpV(bipy)],can be promoted

# Target: PTEN (Homo sapiens, UniProt P60484)
# Experiment: PTEN inhibition assay (malachite green phosphate release), IC50 determination
# Format: biochemical
# Details: not given
# Protocol: PTEN inhibitors are evaluated in an inhibition assay conducted in half-volume 96 well plates in 25 ul total volume per well containing 2 mM dithiothreitol (DTT) and 0.1 mM Tris buffer, pH 8.0 and up to 3 ug total protein of PTEN. Small volumes of the test inhibitor candidates (stock concentrated solutions of 25 mM in DMSO) are mixed with the PTEN solution at room temperature for about 10 minutes and then substrate is added. The reaction mix is then incubated in 37° C. for 20 minutes. Subsequent to this a 100 ul aliquot of malachite green buffer (Upstate, Charlottesville, Va.) is added to develop the color in the dark at room temperature (this solution also stops the dephosphorylation reaction). A SpectraMax Plus spectrophotometric plate reader (Molecular Devices, Sunnyvale, Calif.) is used to measure the optical density at 650 nanometers. […]
# To determine the dose response of potential PTEN inhibitors, doses of test compounds ranging from 1 nM to 250 uM (final reaction mix concentrations) are evaluated in the general PTEN inhibition assay (supra). […] Once the concentration range is determined, at which PTEN activity changes dramatically, two additional concentration data points within this range are added and the PTEN inhibition assay is then rerun for the second round. […]
# Chain of PTEN (P60484 whole entry, species assumed): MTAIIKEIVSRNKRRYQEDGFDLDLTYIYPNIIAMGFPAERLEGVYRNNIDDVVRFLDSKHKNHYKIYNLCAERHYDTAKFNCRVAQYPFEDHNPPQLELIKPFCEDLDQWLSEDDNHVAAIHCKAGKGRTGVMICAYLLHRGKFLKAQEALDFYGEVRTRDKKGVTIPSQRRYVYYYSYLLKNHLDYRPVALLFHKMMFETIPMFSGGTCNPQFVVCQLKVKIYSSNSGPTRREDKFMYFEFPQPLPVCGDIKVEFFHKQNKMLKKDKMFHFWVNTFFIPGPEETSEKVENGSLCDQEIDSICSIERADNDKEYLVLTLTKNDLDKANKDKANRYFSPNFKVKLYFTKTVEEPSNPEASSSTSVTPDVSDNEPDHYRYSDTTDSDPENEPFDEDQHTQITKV
row,IC50 [µM],Molecule
1,0.3,O=C(COc1ccccc1)Nc1cnc2c(c1)C(=O)C(=O)c1cccnc1-2
2,2,CC(C)(C)C(=O)Nc1cnc2c(c1)C(=O)C(=O)c1cccnc1-2
